The structures appear in SMILES notation.

One series concerns the target wild-type BRAF enzyme (Homo sapiens (Human), UniProt P15056). Nature of the series: RAF inhibition assay (TB-PMAP2K1 kit), wild-type BRAF. It counts as biochemical. To be noted: FLUORESCEIN-MAP2K1 substrate, 60 min reaction. As for the experimental part: Assay protocol: the inhibitory effects of the compounds of the present invention on the wild-type BRAF enzyme, mutant CRAF enzyme (RAF1 Y340D and Y341D) and mutant BRAF enzyme (BRAF-V600E) activity were determined according to the instructions of the TB-PMAP2K1 (PSER217/221) kit (ThermoFisher). Different RAF enzymes and substrates (FLUORESCEIN-MAP2K1) were pre-incubated with test compounds at various concentrations at room temperature for 15 min, and then the adenosine triphosphate (ATP) was added to initiate the reaction. After incubation at room temperature for 60 min, EDTA and Tb-labeled anti-pMAP2K1 [pS217/221] antibody solutions were added, and incubation was performed at room temperature for 60 min before the detection of the fluorescence values of the compounds in each group. With the vehicle group (DMSO) as the negative control and the buffer group (without RAF enzyme) as the blank control, the relative inhibitory activity percentage (i.e., the inhibition rate) of a compound at different concentrations was calculated according to the following formula:
Relative inhibitory activity percentage=1−(Compound group at various concentrations−blank control)/(negative control−blank control)*100%
The relative inhibitory activity percentages of the compounds at different concentrations were plotted against the compound concentrations, the curve was fitted according to a four-parameter model, and the IC50 value was calculated according to the following formula:
y=min+(max−min)/(1+(x/IC50)^(−Hillslope))
wherein y is the relative inhibitory activity percentage, max and min are respectively the maximum and minimum values of the fitted curve, x is the logarithm concentration of the compound, and Hillslope is the slope of the curve.

The subject of series [1] is human hepatocellular carcinoma cell HepG2 (NRAS-Q61K mutation). Briefly: Cancer cell proliferation inhibition assay, HepG2. It counts as cell-based. To be noted: 72 h incubation, Cell Titer Glo. From the text:
(§1) The inhibitory effects of the compounds of the present invention on cancer cell proliferation were further evaluated by testing the effects of the compounds of the present invention on the growth of cancer cells.
(§2) In this example, human melanoma cell A375 (BRAF-V600E mutation, purchased from the Cell Bank of the Chinese Academy of Sciences) and human hepatocellular carcinoma cell HepG2 (NRAS-Q61K mutation, purchased from ATCC, USA) were employed.
(§3) In this example, the test compounds at various concentrations (100000 nM, 30000 nM, 10000 nM, 3000 nM, 1000 nM, 300 nM, 100 nM, 30 nM, 10 nM) were added to the above cells, and the incubation was performed for 72 h. The inhibitory activity of the compounds was tested by measuring ATP in living cells using the Cell Titer Glo Kit (Promega).
(§4) The IC50 values of the compounds of the present invention for each tested cell were determined, and the test results are as follows: […]

In series [2] the test system is human melanoma cell A375 (BRAF-V600E mutation). Briefly: Cancer cell proliferation inhibition assay, A375. It is filed as cell-based. To be noted: A-375, 72 h incubation, Cell Titer Glo.
Description: as §1, §2, §3, §4
(In general: In ATP-based viability assays light output follows the ATP content of the culture.)

Series [3] in a line: Pharmacokinetic test in Balb/c mice. To be noted: female Balb/c mice, PO, 10 mg/kg, DBS samples. It counts as in vivo. As to the method: The compounds were administered to female Balb/c mice by gavage (PO) to investigate the pharmacokinetic profile.
Compound 1 of the present invention and HM95573 (prepared according to Example 116 in CN104039798B) were administered via PO; the administration dosage was 10 mg/kg, and the administration vehicle was a 20% aqueous solution of hydroxypropyl-β-cyclodextrin. Blood samples were collected before the administration (0 h) and at 0.25, 0.5, 1, 2, 4, 6, 8, 24, 48, and 72 h after the administration; 50-70 μL of blood was drawn from the orbit and spotted on Whatman 903 card, which was air-dried at room temperature for testing. After the testing, the samples were placed in a sealed dry box and stored at −80° C. (DBS samples). The DBS samples were punched with a 6 mm punch, then 80 μL of 50% acetonitrile-water was added and shaken (800 rpm, 10 min), followed by sonication for 10 min, then 350 μL of acetonitrile containing internal standard was added and shaken (700 rpm, 10 min). After sonication for 10 min, the samples were centrifuged at 4000 rpm and 4° C. for 10 min, and the supernatant was collected for LC-MS/MS analysis. The pharmacokinetic parameters were calculated using the WinNonlin 6.3 software and employing a non-compartmental model, and the results are shown in Table 6.

Series [4] in a line: Pharmacokinetic test in Beagle dogs. It counts as in vivo. To be noted: male Beagle dogs, PO, 2.5 mg/kg, plasma. As to the method: The compounds were administered to male Beagle dogs by gavage (PO) to investigate the pharmacokinetic profile.
Compound 1 of the present invention and HM95573 were administered via PO; the administration dosage was 2.5 mg/kg, and the solvent was a 20% aqueous solution of hydroxypropyl-β-cyclodextrin. Blood samples were collected before the administration (0 h) and at 0.25, 0.5, 1, 2, 4, 6, 8, 24, 48, and 72 hours after the administration, and 1 mL blood was collected from the limbs vein and placed in a K2-EDTA anticoagulation tube. After centrifugation at 4000 rpm for 5 min (4° C.), the plasma was separated and stored at −80° C. for testing. The plasma samples were processed by precipitating proteins, and then subjected to LC-MS/MS analysis. The pharmacokinetic parameters were calculated using the WinNonlin 6.3 software and employing a non-compartmental model, and the results are shown in Table 7.

Chain of wild-type BRAF enzyme (P15056 whole entry): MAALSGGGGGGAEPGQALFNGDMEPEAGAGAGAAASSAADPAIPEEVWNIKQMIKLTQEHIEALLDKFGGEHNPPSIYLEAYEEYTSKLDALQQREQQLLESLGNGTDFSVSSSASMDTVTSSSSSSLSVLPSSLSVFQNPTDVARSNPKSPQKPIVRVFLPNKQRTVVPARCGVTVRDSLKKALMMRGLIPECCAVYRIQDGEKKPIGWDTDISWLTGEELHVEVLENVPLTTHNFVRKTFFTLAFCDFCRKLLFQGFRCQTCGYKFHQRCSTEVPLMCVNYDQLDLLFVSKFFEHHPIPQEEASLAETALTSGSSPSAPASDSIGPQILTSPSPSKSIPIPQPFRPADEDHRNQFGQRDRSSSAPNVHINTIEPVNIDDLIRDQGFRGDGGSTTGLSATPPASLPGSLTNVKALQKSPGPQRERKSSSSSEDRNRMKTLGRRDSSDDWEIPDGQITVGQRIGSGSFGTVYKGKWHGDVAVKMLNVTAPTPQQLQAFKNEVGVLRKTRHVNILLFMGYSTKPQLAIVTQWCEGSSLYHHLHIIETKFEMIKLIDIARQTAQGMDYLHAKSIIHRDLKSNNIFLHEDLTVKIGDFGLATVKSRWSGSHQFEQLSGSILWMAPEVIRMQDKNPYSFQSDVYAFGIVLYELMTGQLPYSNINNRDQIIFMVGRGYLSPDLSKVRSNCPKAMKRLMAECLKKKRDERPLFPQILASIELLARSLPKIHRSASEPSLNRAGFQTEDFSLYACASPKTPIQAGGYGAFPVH

Broadly, the IC50 is the concentration needed to halve the response being measured. A lower IC50 goes with higher potency. Regarding `Cc1ccc2c(Nc3cccc(Cl)c3F)nccc2c1NC(=O)c1cc(F)cc2c(N)ncnc12` [Compound 46, 4-amino-N-(1-((3-chloro-2-fluorophenyl)amino)-6-methylisoquinolin-5-yl)-6-fluoroquinazoline-8-carboxamide], the IC50 on wild-type BRAF enzyme is 79.3 ± 19.5 nM; in series [1], 74.4 ± 7.91 nM; in series [2], 89.3 ± 5.2 nM.

For `Cc1ccc2c(Nc3cc(S(C)(=O)=O)ccc3F)nccc2c1NC(=O)c1cccc2c(N)ncnc12` [Compound 89, 4-amino-N-(1-((2-fluoro-5-(methylsulfonyl)phenyl)amino)-6-methylisoquinolin-5-yl)quinazoline-8-carboxamide], the values for the half-inhibitory concentration (IC50) (against wild-type BRAF enzyme; in series [1]; in series [2]) were 20.4 ± 1.3 nM, 106 ± 25.2 nM and 111 ± 5.2 nM, respectively.

For the compound `Cc1ccc2c(Nc3cc(F)c(F)cc3F)nccc2c1NC(=O)c1cccc2c(N)ncnc12` [Compound 90, 4-amino-N-(6-methyl-1-((2,4,5-trifluorophenyl)amino)isoquinolin-5-yl)quinazoline-8-carboxamide], the half-maximal inhibitory concentration (IC50) amounted to 26.5 ± 2.18 nM against wild-type BRAF enzyme, 118 ± 12.6 nM in series [1] and 74 ± 6.3 nM in series [2].

In the case of `Cc1ccc2c(Nc3cccc(C(F)(F)F)c3)nccc2c1NC(=O)c1cnc2c(N)ncnn12` [Compound 43, 4-amino-N-(6-methyl-1-((3-(trifluoromethyl)phenyl)amino)isoquinolin-5-yl)imidazo[2,1-f][1,2,4]triazine-7-carboxamide], the half-inhibitory concentration (IC50) against wild-type BRAF enzyme came out at 20.7 ± 5.71 nM; in series [1] it was 32.9 ± 3.3 nM; in series [2], 61.7 ± 3 nM.

`Cc1ccc2c(Nc3ccc(Cl)cc3F)nccc2c1NC(=O)c1cccc2c(N)ncnc12` [Compound 41, 4-amino-N-(1-((4-chloro-2-fluorophenyl)amino)-6-methylisoquinolin-5-yl)quinazoline-8-carboxamide]: the concentration for half-maximal inhibition (IC50) worked out at 31.8 ± 5.36 nM against wild-type BRAF enzyme, 55.6 ± 4.8 nM in series [1] and 22.2 ± 1.86 nM in series [2].

For the compound `Nc1ncnc2c(C(=O)Nc3c(F)ccc4c(Nc5cccc(Cl)c5F)nccc34)cccc12` [Compound 92, 4-amino-N-(1-((3-chloro-2-fluorophenyl)amino)-6-fluoroisoquinolin-5-yl)quinazoline-8-carboxamide], the results for the IC50 (against wild-type BRAF enzyme; in series [1]; in series [2]) were 21.8 ± 3.89 nM, 49.8 ± 4.3 nM and 128 ± 8 nM, respectively.

Usually Cmax stands for the highest concentration seen after dosing. What is called Tmax is the time from dosing to the highest level. Take `Cc1ccc2c(Nc3cccc(Cl)c3F)nccc2c1NC(=O)c1csc2c(N)ncnc12` [HM95573, reference compound]: in series [3], the AUClast is 110760 ± 9636 ng·h/mL, the Cmax is recorded as 4710 ± 806 ng/mL, the T1/2 was 9.57 ± 0.58 h and the Tmax amounted to 1.67 ± 0.58 h. Moreover, in series [4], the AUClast was found to be 13080 ± 6254 ng·h/mL, the highest concentration (Cmax) turned out to be 989 ± 411 ng/mL, the T1/2 came out at 8.43 ± 1.76 h and the time to peak (Tmax) worked out at 1.33 ± 0.58 h.

For `COc1ccc(Nc2nccc3c(NC(=O)c4cccc5c(N)ncnc45)c(C)ccc23)c(F)c1` [Compound 60, 4-amino-N-(1-((2-fluoro-4-methoxyphenyl)amino)-6-methylisoquinolin-5-yl)quinazoline-8-carboxamide], the results for the IC50 (against wild-type BRAF enzyme; in series [1]; in series [2]) were 8.48 ± 0.9 nM, 34.1 ± 4.32 nM and 28 ± 3.12 nM, respectively.

Regarding `Cc1ccc2c(Nc3ccc(F)cc3F)nccc2c1NC(=O)c1cccc2c(N)ncnc12` [Compound 67, 4-amino-N-(1-((2,4-difluorophenyl)amino)-6-methylisoquinolin-5-yl)quinazoline-8-carboxamide], the results for the IC50 (against wild-type BRAF enzyme; in series [1]; in series [2]) were 13.2 ± 1.67 nM, 56.7 ± 9.3 nM and 184 ± 16.9 nM, respectively.

For the compound `Cc1ccc2c(Nc3cccc(Cl)c3)nccc2c1NC(=O)c1cccc2c(N)ncnc12` [Compound 38, 4-amino-N-(1-((3-chlorophenyl)amino)-6-methylisoquinolin-5-yl)quinazoline-8-carboxamide], the results for the IC50 (at wild-type BRAF enzyme; in series [1]; in series [2]) were 23.2 ± 2.67 nM, 38.1 ± 3.6 nM and 96.7 ± 14.3 nM, respectively.

Turning to `Cc1ccc2c(Cc3cccc(C(F)(F)F)c3)nccc2c1NC(=O)c1csc2c(N)ncnc12` [Compound 19, 4-amino-N-(6-methyl-1-(3-(trifluoromethyl)benzyl)isoquinolin-5-yl)thieno[3,2-d]pyrimidine-7-carboxamide], the half-maximal inhibitory concentration (IC50) against wild-type BRAF enzyme worked out at 21.6 ± 4.85 nM; in series [1] it was 136 ± 21.3 nM; in series [2], 163 ± 21.3 nM.

Consider `Cc1ccc2c(Nc3cc(Cl)ccc3F)nccc2c1NC(=O)c1cccc2c(N)ncnc12` [Compound 73, 4-amino-N-(1-((5-chloro-2-fluorophenyl)amino)-6-methylisoquinolin-5-yl)quinazoline-8-carboxamide], for which the IC50 at wild-type BRAF enzyme stood at 36.2 ± 16.5 nM; in series [1], 59.6 ± 2.2 nM; in series [2], 109 ± 22.8 nM.

As to `Cc1ccc2c(Nc3cccc(Cl)c3F)nccc2c1NC(=O)c1ccc(F)c2c(N)ncnc12` [Compound 93, 4-amino-N-(1-((3-chloro-2-fluorophenyl)amino)-6-methylisoquinolin-5-yl)-5-fluoroquinazoline-8-carboxamide], the IC50 against wild-type BRAF enzyme was 13.5 ± 1.02 nM; in series [1], 62.9 ± 11.3 nM; in series [2], 61.7 ± 3.6 nM.

Regarding `Cc1ccc2c(Nc3c(F)cc(F)cc3F)nccc2c1NC(=O)c1cccc2c(N)ncnc12` [Compound 94, 4-amino-N-(6-methyl-1-((2,4,6-trifluorophenyl)amino)isoquinolin-5-yl)quinazoline-8-carboxamide], the IC50 against wild-type BRAF enzyme was 10.3 ± 1 nM; in series [1], 47.4 ± 6.5 nM; in series [2], 58.8 ± 5.6 nM.

In the case of `Cc1ccc2c(Nc3ccc(F)cc3F)nccc2c1NC(=O)c1cc(F)cc2c(N)ncnc12` [Compound 85, 4-amino-N-(1-((2,4-difluorophenyl)amino)-6-methylisoquinolin-5-yl)-6-fluoroquinazoline-8-carboxamide], the 50% inhibitory concentration (IC50) against wild-type BRAF enzyme is 12.9 ± 0.9 nM; in series [1] it was 40.1 ± 6.97 nM; in series [2], 148 ± 3.8 nM.

The record behind these values is patent US20230312556A1, “ARYLAMIDE COMPOUND, PHARMACEUTICAL COMPOSITION COMPRISING SAME, AND PREPARATION METHOD THEREFOR AND USE THEREOF” (SICHUAN KELUN-BIOTECH BIOPHARMACEUTICAL CO., LTD., priority 2020, published 2023).
